Experimental data taken from ChEMBL document CHEMBL1782011, “Facile synthesis, vasorelaxant properties and molecular modeling studies of 2-amino-8a-methoxy-4H-pyrano[3,2-c]pyridine-3-carbonitriles” (Eur J Med Chem, 2011).
Counter-ions that a name gives are not always drawn.

Species on record: Rattus norvegicus
Experiment: Vasodilatory activity in Wistar rat thoracic aorta rings assessed as inhibition of norepinephrine hydrochloride-induced contraction
Format: functional

Compound	IC50 [µM]
CO[C@@]12CCN(C)C[C@H]1[C@H](c1ccc(Cl)cc1)C(C#N)=C(N)O2	370
CO[C@@]12CCN(C)C[C@H]1[C@H](c1ccc(F)cc1)C(C#N)=C(N)O2	520
CO[C@@]12CCN(C)C[C@H]1[C@H](c1ccc(C)cc1)C(C#N)=C(N)O2	600
COc1ccc([C@@H]2C(C#N)=C(N)O[C@]3(OC)CCN(C)C[C@@H]23)cc1	300
CCN1CC[C@@]2(OC)OC(N)=C(C#N)[C@@H](c3ccc(N4CCOCC4)cc3)[C@@H]2C1	640
COc1cc2nc(N3CCN(C(=O)c4ccco4)CC3)nc(N)c2cc1OC [PRAZOSIN HYDROCHLORIDE]	490

Further lines, results first:

IC50 [µM]	Compound
680	CCN1CC[C@@]2(OC)OC(N)=C(C#N)[C@@H](c3ccccc3)[C@@H]2C1
400	CCN1CC[C@@]2(OC)OC(N)=C(C#N)[C@@H](c3ccc(Cl)cc3)[C@@H]2C1
680	CCN1CC[C@@]2(OC)OC(N)=C(C#N)[C@@H](c3ccc(OC)cc3)[C@@H]2C1
680	CO[C@@]12CCN(C)C[C@H]1[C@H](c1cccs1)C(C#N)=C(N)O2
490	CCN1CC[C@@]2(OC)OC(N)=C(C#N)[C@@H](c3cccs3)[C@@H]2C1
450	CO[C@@]12CCN(C)C[C@H]1[C@H](c1ccc(N3CCCCC3)cc1)C(C#N)=C(N)O2
480	CCN1CC[C@@]2(OC)OC(N)=C(C#N)[C@@H](c3ccc(N4CCCCC4)cc3)[C@@H]2C1
740	CO[C@@]12CCN(C)C[C@H]1[C@H](c1ccc(N3CCOCC3)cc1)C(C#N)=C(N)O2
720	CO[C@@]12CCN(C)C[C@H]1[C@H](c1ccccc1)C(C#N)=C(N)O2
